Assay results published in PubChem BioAssay AID720666 (NMMLSC, 2013).
Active and inactive are the calls of the source.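 The calls were made as follows: active = over 50% inhibition of PKC substrate or ERK kinase phosphorylation; inactive = the rest.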

Each compound was assayed on TALL-104 cells, PKC substrate phosphorylation, flow cytometry (assay: blockers of stimulated PKC activity in TALL-104 – TALL-104 cells, flow cytometry, CherryPick01, mechanism study for lytic granule exocytosis inhibitor project, late-stage follow-up (AID 720666)). Conditions: at 30 µM; stronger effect = higher value.
With `COc1ccc(N2C(=O)CC(Sc3nnc(-c4ccccc4)o3)C2=O)cc1` (configuration not stated) the inhibition was 1.3% (inactive).
For `CC1=C(C)CS(=O)N(S(=O)(=O)c2ccc(Cl)cc2)C1` (configuration not stated), the inhibition was -41.1% (inactive).
With `CN(C)CCNC(=O)c1ccc(-c2cn3c(-c4ccc(Oc5ccccc5)cc4)cnc3cn2)cc1` the inhibition was 5.3% (inactive).
With `CCN(CC)CCCNc1ccc(-c2nnc(-c3ccc(OCC(C)C)cc3)o2)cn1` the inhibition was -94.2% (inactive).
In the case of `O=C(Cn1sc2ccccc2c1=O)Nc1ccc(F)cc1`, the inhibition was -10.3% (inactive).
For `COc1ccc(-n2sc3ccccc3c2=O)cc1`, the inhibition was 0% (inactive).
For `CC1=NOC(=O)/C1=C/c1ccc(-c2ccc(Cl)cc2)o1`, the inhibition was -44% (inactive).
`CC1COCC(C)N1C1=C(Cl)C(=O)c2ccccc2C1=O` (configuration not stated) was tested, and the inhibition was -212% (inactive).
`Cc1ccc(Nc2nc(NCc3ccco3)c3ccccc3n2)cc1` was tested, and the inhibition was -25.2% (inactive).
`O=CNc1cc(-c2ccsc2)cn2c(-c3ccccc3)cnc12` was tested, and the inhibition was -35.4% (inactive).
In the case of `O=c1c2ccc(F)cc2sn1-c1ccccc1`, the inhibition was -40.1% (inactive).
In the case of `Cc1ccc(S(=O)(=O)n2ccc3c(OCCOCCNCc4ccc(F)cc4)cccc32)cc1`, the inhibition was -25.9% (inactive).
In the case of `O=C1CC(Sc2nnnn2-c2ccccc2)C(=O)N1c1cccc(Cl)c1` (configuration not stated), the inhibition was -30.8% (inactive).
`Cc1cc(N2CCN(c3nc(-c4ccc([N+](=O)[O-])cc4)cs3)CC2)c2ccccc2n1` was tested, and the inhibition was -81.1% (inactive).
In the case of `CC(C)(c1ccccc1)c1ccc(OCC(O)CNC2CCN(Cc3ccccc3)CC2)cc1` (configuration not stated), the inhibition was -98.8% (inactive).
`N#Cc1c(Nc2ccccc2Cl)s[nH]c1=O` was tested, and the inhibition was -74.8% (inactive).
In the case of `O=C(CN1C(=O)/C(=C\c2cccc(Br)c2)Oc2ccccc21)NCCCN1CCOCC1`, the inhibition was 6.3% (inactive).
For `COC(=O)c1c(NC(=O)c2nc3ccccc3s2)sc2c1CC(C)(C)NC2(C)C`, the inhibition was -30.7% (inactive).
With `CCCCC[C@@H](C)N1C[C@@H](COCc2ccccc2)Oc2cc(N3CC[C@@H](N(C)C)C3)ccc2S1(=O)=O` the inhibition was -3.7% (inactive).
`COc1ccc(-c2cc(NC=O)c3ncc(-c4ccccc4)n3c2)cc1OC` was tested, and the inhibition was -38.6% (inactive).
For `CCCCC[C@@H](C)N1C[C@H](COCc2ccccc2)Oc2cc(N3CC[C@@H](N(C)C)C3)ccc2S1(=O)=O`, the inhibition was -58.8% (inactive).
`CCOC(=O)c1c(NC(=O)COc2ccccc2OCC)sc2c1CC(C)(C)NC2(C)C` was tested, and the inhibition was -9.9% (inactive).
`COc1ccccc1CNc1nc(NCc2ccc(C(C)C)cc2)c2sccc2n1` was tested, and the inhibition was -50.7% (inactive).
In the case of `CCCCC[C@@H](C)N1C[C@@H](COCc2ccccc2)Oc2cc(N3CC[C@H](N(C)C)C3)ccc2S1(=O)=O`, the inhibition was -45.9% (inactive).
For `O=C(Cn1sc2ccccc2c1=O)NC12CC3CC(CC(C3)C1)C2`, the inhibition was -7.9% (inactive).
For `O=c1c2ccccc2sn1-c1ccccc1`, the inhibition was -24.9% (inactive).
In the case of `COc1ccc(-c2cc(NC=O)c3ncc(-c4cccc(OC)c4)n3c2)cc1`, the inhibition was -43.6% (inactive).
